On the set-up of series [1]: method as in PMID 28800072. The following applies: estimated, relative to silibinin; cited from earlier work.
The next series concerns Jurkat. The experiment in a line: Antiproliferative activity on Jurkat cells (CCK-8). The format is cell-based. Conditions: Homo sapiens, 48 h incubation. As to the method: (§1) Human T lymphoblastoid (Jurkat) and human metastatic melanoma (WM266) cell lines were grown in RPMI medium supplemented with heat inactivated 10% fetal bovine serum (FBS), 2.5 mM glutamine, 100 U/mL penicillin, and 100 μg/mL streptomycin (Euroclone). Human cervix adenocarcinoma cell line (HeLa), human lung carcinoma (A549), human pancreatic cancer (PANC), human glioblastoma (U87) normal human fibroblasts (HDF) were grown in DMEM supplemented with 10% fetal bovine serum (FBS), 1% glutamine, 100 U/mL penicillin and 100 μg/mL streptomycin (Euroclone, Milano, Italy). Cells were maintained in humidified air containing 5% CO2, at 37 °C [30].
(§2) Cells were plated at density of 10,000 cells/well for Jurkat, 2000/well for WM266 and HDF, 1200 cells/well for HeLa, and 1000 for PANC, U87 and A375 in 96-well microplates (Thermofisher, Waltham, MA, USA). After 24 h incubation, cells were treated with increasing concentrations of synthetized compounds previously solubilized in DMSO at 50 mM concentration. Cell proliferation was determined by using (2-(2-methoxy-4-nitrophenyl)-3-(4-nitrophenyl)-5-(2,4-disulfophenyl)-2H-tetrazolium, monosodium salt (CCK-8, Sigma Aldrich) for Jurkat cells, and the 3-(4,5-dimethylthiazol-2-yl)-2,5- diphenyltetrazolium bromide assay (MTT, Sigma Aldrich, Sigma Aldrich, St. Louis, MO, USA)) for HeLa, WM266, PANC, U87 and HDF cells, after 48 h treatment. Plates were then analyzed by using a microplate reader (Enspire, Perkin Elmer Italia Spa, Milano, Italy) at 450 (CCK-8) or 570 nm (MTT).
(§3) The results are presented as the percentage of proliferating cells respect to the control (vehicle treated cells) and are expressed as means ± SE of, at least, three independent experiments performed in triplicate. The statistical analysis was performed using Student’s t-test, unpaired, two-sided, p < 0.05 was considered significant. The IC50 values were calculated by GraphPad Prism software.

Another series relates to HDF. The series can be described thus: Antiproliferative activity on normal human fibroblasts HDF. The format is cell-based. The following applies: 48 h incubation. As to the method: as §1, §2, §3
Series [2] can be described thus: Apoptosis assay, annexin V-FITC/PI double staining, flow cytometry. The format is cell-based, Human. The following applies: human, Jurkat cells, 37 °C, Figure 4, read-out: viable cells (lower left quadrant). As to the method: (§4) For this purpose, Jurkat was incubated with the molecules at a concentration of 200 μM, and flow cytometric analysis with annexin V/propidium iodine (PI) double staining was carried out.
(§5) The apoptosis analysis was performed on Jurkat cells seeded at 2.5 × 10^5 cells/mL in a 6-well plate. The cells were incubated in the absence or presence of 200 μM concentration of examined compounds at 37 °C and apoptosis induction was analysed after 48 h by double staining with annexin V/FITC and propidium iodide (PI) (eBioscience, Affimetrix Santa Clara, CA, USA). The cells undergoing apoptosis were quantified using a flow cytometer equipped with a 488 nm argon laser (Becton Dickinson, Franklin Lakes, NJ, USA) by Cell Quest software. All FACS analyses were performed at least 2 times.

Another series concerns Jurkat cells. The description is as above. Conditions: 200 μM, 48 h. The format is cell-based, Human. The protocol: as §4, §5
A short description of series [3]: Hydroxyl radical (HO•) scavenging, second-order rate constant by laser flash photolysis (thiocyanate competition). The following applies: calculated in H2O; mean of three replicates. An excerpt:
Biologically, the hydroxyl radical (HO^●) is widely believed to be generated when hydrogen peroxide reacts with Fe(II) (Fenton reaction). The putative HO^●∙is an extremely reactive and short-lived species that can damage DNA, proteins, and lipids. However, the Fe(II)/H2O2 mixture has disadvantages in a scavenging assay because many flavonoids as well as flavonolignans are also metal chelators. When the sample is mixed with Fe(II), it may alter the activity of Fe(II) by chelation. As a result, it is impossible to distinguish if the antioxidants are simply good metal chelators or HO^● scavengers. In our study the second order rate constants for HO^● reactions with silybin dimers (6aa, 6bb and 6ab) have been determined by pulse photolysis method using hydrogen peroxide (H2O2) as ROS sources. […] This could be explained considering that in dimers 9′′-9′′ the 3, 5 and 4′′ OH functions, responsible for the radical scavenger activity, are not involved in any bond. […]
The reactivity constant between new silybin dimers and hydroxyl radical has been determined using Laser flash Photolysis system. […]
The formation of di-thiocyanate radical anion (SCN2^●−) through reactivity of photogenerated hydroxyl radicals (HO^●) with thiocyanate (SCN^- in the presence of hydrogen peroxide. The second-order rate constants between HO^● and dimers were determined following reactions (R1–R4 in the Section 2.2) and using the following equation:(1) Abs0/Abs=1+kHO^•,DimerII[Dimer]/kHO^•,SCN^−II[SCN^−] where Abs0 and Abs are the absorption of SCN2•− at 475 nm in absence and presence of dimers; kHO^•,SCN^−II and kHO^•,DimerII are the second-order rate constants of HO^● with thiocyanate and dimers at different concentrations. […] Means were compared by one way analysis of variance (ANOVA) and significant differences were assessed by post hoc tests of least significant. […]

Turning to `COc1cc(C2Oc3cc([C@H]4Oc5cc(O)cc(O)c5C(=O)[C@@H]4OP(=O)(O)OCC4Oc5ccc([C@H]6Oc7cc(O)cc(O)c7C(=O)[C@@H]6O)cc5OC4c4ccc(O)c(OC)c4)ccc3OC2CO)ccc1O` (stereo partly shown) [3-9′′], in series [1], the “reactivity towards HO• with respect to silibinin” value is “about two times”.

Consider `COc1cc(C2Oc3cc([C@H]4Oc5cc(O)cc(O)c5C(=O)[C@@H]4O)ccc3OC2COP(=O)(O)OCC2Oc3ccc([C@H]4Oc5cc(O)cc(O)c5C(=O)[C@@H]4O)cc3OC2c2ccc(O)c(OC)c2)ccc1O` (stereo partly shown) [9′′-9′′], for which the “reactivity towards HO• with respect to silibinin” value in series [1] is listed as “about two times”.

Consider `COc1cc([C@H]2Oc3cc([C@H]4Oc5cc(O)cc(O)c5C(=O)[C@@H]4O)ccc3O[C@@H]2CO)ccc1O` [Compound 1a, silybin A, reference compound], for which the IC50 with Jurkat came out at 46.7 ± 14.1 µM; in the series on HDF, 199 ± 34.5 µM. Besides, in series [2], the viability at 48 h, 200 µM was 20.2%. In the series on Jurkat cells, the “apoptotic cells (early and advanced) with respect to the control” value (from here on “apoptotic cells (early and advanced)”) was 70%.

Regarding `COc1cc([C@@H]2Oc3cc([C@H]4Oc5cc(O)cc(O)c5C(=O)[C@@H]4O)ccc3O[C@H]2CO)ccc1O` [Compound 1b, silybin B, reference compound], the results for the IC50 in the series with Jurkat and with HDF were 36 ± 14.3 µM and 172 ± 39 µM, respectively. Also, the viability at 48 h, 200 µM in series [2] came to 17.1%. The “apoptotic cells (early and advanced)” value in the series on Jurkat cells is recorded as 70%.

`COc1cc([C@H]2Oc3cc([C@H]4Oc5cc(O)cc(O)c5C(=O)[C@@H]4O)ccc3O[C@@H]2COP(=O)(O)OC[C@H]2Oc3ccc([C@H]4Oc5cc(O)cc(O)c5C(=O)[C@@H]4O)cc3O[C@@H]2c2ccc(O)c(OC)c2)ccc1O` [Compound 6aa]: the “Second order rate constant kHO•,X II” value in series [3] is recorded as 8.63 ± 1.35 × 10^9 M^−1·s^−1. Further, the IC50 was 71 ± 15.5 µM in the series with Jurkat and more than 200 µM in the series with HDF. For the same compound, the viability at 48 h, 200 µM in series [2] amounted to 73%. Besides, in the series on Jurkat cells, the “apoptotic cells (early and advanced)” value is 20%.

For the compound `COc1cc([C@H]2Oc3cc([C@H]4Oc5cc(O)cc(O)c5C(=O)[C@@H]4O)ccc3O[C@@H]2COP(=O)(O)OC[C@@H]2Oc3ccc([C@H]4Oc5cc(O)cc(O)c5C(=O)[C@@H]4O)cc3O[C@H]2c2ccc(O)c(OC)c2)ccc1O` [Compound 6ab], in series [3], the “Second order rate constant kHO•,X II” value was 1.48 ± 0.09 × 10^10 M^−1·s^−1. Besides, the IC50 was 64 ± 10.8 µM in the series on Jurkat and more than 200 µM in the series with HDF. For the same compound, the viability at 48 h, 200 µM in series [2] was 63.6%. Also, the “apoptotic cells (early and advanced)” value with Jurkat cells was “about 25%”.

Consider `COc1cc([C@@H]2Oc3cc([C@H]4Oc5cc(O)cc(O)c5C(=O)[C@@H]4O)ccc3O[C@H]2COP(=O)(O)OC[C@@H]2Oc3ccc([C@H]4Oc5cc(O)cc(O)c5C(=O)[C@@H]4O)cc3O[C@H]2c2ccc(O)c(OC)c2)ccc1O` [Compound 6bb], for which the “Second order rate constant kHO•,X II” value in series [3] is 1.01 ± 0.16 × 10^10 M^−1·s^−1. In addition, the IC50 is 59 ± 19.9 µM with Jurkat and more than 200 µM in the series on HDF. In series [2], the viability at 48 h, 200 µM stood at 84.8%. In addition, the “apoptotic cells (early and advanced)” value in the series with Jurkat cells is on record as 4%.

The values above are taken from paper PMC8911775, “Phosphodiester Silybin Dimers Powerful Radical Scavengers: A Antiproliferative Activity on Different Cancer Cell Lines” (Molecules, 2022).
